Type in all cases: cell-based, human
One assay deals with caspase-3. Briefly: Caspase assay in MCF7 cells. Conditions: 0.5-1 μM, 48 h, relative to DMSO. As for the experimental part:
Caspase assay. MCF7 cells in a 6-well plate were treated with GTC365 for 48 h. The caspase-3 assay was conducted using an Apoalert Caspase 3 Fluorescent Assay Kit (Clontech) with DEVD-AFC as a substrate of capase-3 following the manufacturer's instruction. Fluorescence intensity of released AFC was measured using a BioTek Synergy HT with excitation at 400 nm and emission at 505 nm. The relative caspase-3 activity compared to the DMSO was obtained.
Indeed at 0.5-1 μM, the BAX/BCL2 ratio was increased by over 2-fold and the capase-3 activity was increased by 47% (FIGS. 11 and 12).

The subject of assay [1] is BCL2 mRNA in WT and G146A melanoma cells. Briefly: qPCR of BCL2 mRNA in melanoma cells. Conditions: 72 h. As for the experimental part: (§1) Cell cultures. MCF7 and melanoma (UACC 383) cells were cultured in media of RPMI-1640 with 10% FBS and 1% penicillin/streptomycin. For melanoma cells UACC 2512, UACC 3090, UACC 1729, and UACC 2528, 20% FBS was included in the RPMI media instead of 10% FBS. Cells were incubated at 37° C. with 5% CO2.
(§2) qPCR. MCF7 and melanoma cells were treated with GTC365 and BRACO-19 for 72 h. Total RNA was extracted using an RNeasy mini-prep kit (Qiagen) and quantitated by measuring absorbance at 260 nm. cDNA was synthesized using a Takara PrimeScript™ RT Reagent Kit with gDNA eraser and then used as a template for qPCR. The qPCR was performed using Kapa Probe Fast qPCR Master Mix with ABI Taqman probes of hTERT (Hs00972656_m1), BCL2 (HS00608023_m1, FAM-labeled) or MYC (Hs00153408_m1), and GAPDH (Hs02758991_g1, VIC-labeled). The Ct values were measured by running Rotor-Gene Q, and the relative quantity of hTERT, BCL2, and MYC mRNA was obtained compared to GAPDH as an internal control.
(§3) To determine the cellular effect of GTC365 on proliferation as well as suppression of the activation of hTERT by G124A, G124/125A, G138/139A, and G146A mutants, melanoma cell lines were used alongside a WT cell line. All mutants increased the mRNA level of hTERT, compared to WT melanoma cells, in the 6.6-34-fold range. […]

Assay [2] deals with hTERT mRNA in melanoma cells carrying WT, G124A, G124/125A, G138/139A and G146A. Briefly: qPCR of hTERT mRNA in melanoma cells (WT and mutants). Conditions: WT and all mutant melanoma cells, 72 h, 1 μM. The protocol:
as §1, §2, §3

Assay [3] relates to hTERT mRNA in melanoma cell line (UACC-903). Put plainly: qPCR of hTERT expression in G124A mutant melanoma cell line. The conditions noted are these: 5 μM, 72 h. As for the experimental part: FIGS. 13A-13C are a set of graphs showingselective reduction in viability (A) and hTERT expression (B) in melanoma cells carrying hTERT core promotor mutations. NHM-002 (normal human melanocytes) and a G124A mutant cell line were treated with vehicle, 1.25, 2.5, and 5 μM GTC365 for 72 h. Viability was reduced in hTERT mutant melanoma cells by 50% (left). […] (C) Differential response to GTC365 in WT and promoter mutant cell lines.
Next, to assess the selectivity of GTC365 for hTERT-dependent cancer cells relative to normal precursorcells, we compared the effects of a range of […] on viability at 72 h in normal humanmelanocytes (NHM-002) relative to those of UACC-903, aG124A mutant (FIG. 13A). […] To confirm that the reduction in cell viability was aresult of hTERT downregulation, we performed reverse transcription and qPCR to measure the mRNA level of hTERT expression in cells treated with DMSO or 5 μMGTC365. hTERT expression was reduced by 41% in themelanoma cell line after 72 h but was undetectable in normalmelanocytes, even in the absence of GTC365 (FIG. 13B). Finally, tobroadly assess the selectivity of GTC365 for hTERT promotermutant versus WT cells, we conducted a 6-point 72 h MTSproliferation assay to determine EC50s in 14 additional melanoma cell lines with characterized TERT promoter status([…]) (FIG. 13C). […]

A further assay concerns MCF7 cells. Briefly: Senescence β-galactosidase assay. The conditions noted are these: 0.5 μM, 5-10 days. The protocol: Senescence β-galactosidase assay. A colorimetric β-galactosidase assay was performed. Briefly, compound-treated MCF7 cells were fixed in 2% formaldehyde and 0.2% glutaraldehyde for 5 min at room temperature. Fixed cells were incubated with staining solution containing 40 mM citric acid (pH 6.0), 5 mM potassium ferrocyanide, 5 mM potassium ferricyanide, 150 mM NaCl, and 2 mM MgCl2 and 1 mg/ml X-gal (Fermentas R0401) for 7 h at 37° C. Stained cells were washed with D-PBS and methanol and subsequently dried in air.
Since senescence is one of the outcomes resulting from loss of telomere length, this was measured by the associated overexpression of lysosomal β-galactosidase, which releases indigo (blue dye) from X-gal. In addition, the cell morphology will also be dramatically changed so that cells appear to be flat and enlarged. […] Abnormal phenotypes such as bridges connecting two adjacent cells and multinucleated cells were also observed in GTC365-treated cells. hTERT is known to localize to mitotic spindles and centromeres and regulate the expression of genes involved in heterochromatin maintenance. In addition, there is alteration of expression of some proteins involved in collagen synthesis or tubulin organization by hTERT transfection.

Each structure is given as a SMILES string.

Turning to `N=C(N)NCCCS(=O)(=O)Nc1ccc(Nc2c3ccccc3nc3cc([N+](=O)[O-])ccc23)cc1` [GTC365], in the assay with caspase-3, the “increase of caspase-3 activity” value is listed as 47%. In assay [1], the “mRNA level of BCL2” value is reported as “decreased”. The “decrease in the mRNA level of hTERT” value in assay [2] was 25%. For the same molecule, the “reduction of hTERT expression (mRNA)” value in assay [3] is listed as 41%. In addition, the “senescence-like phenotype (β-galactosidase staining, morphology)” value in the assay on MCF7 cells was “distinct senescence-like phenotype (SLP)”.
